Source: patent US5602161A, “Tetrazolylphenyl pivalate derivatives and medicinal composition containing the same as effective component” (Wakamoto Pharmaceutical Co., Ltd., priority 1994, dated 1997)
Where a name gives a salt, the structure may show the parent alone.

molecular target: T1, human sputum elastase (Homo sapiens, UniProt P08246); test: Inhibitory effect on elastase (human sputum), spectrophotometric assay with MeOSuc-Ala-Ala-Pro-Val-pNA; type: biochemical; settings: S: human sputum elastase; pH 8.0, 37° C.; read-out: IC50
T1 sequence (P08246 30-247 limits assumed): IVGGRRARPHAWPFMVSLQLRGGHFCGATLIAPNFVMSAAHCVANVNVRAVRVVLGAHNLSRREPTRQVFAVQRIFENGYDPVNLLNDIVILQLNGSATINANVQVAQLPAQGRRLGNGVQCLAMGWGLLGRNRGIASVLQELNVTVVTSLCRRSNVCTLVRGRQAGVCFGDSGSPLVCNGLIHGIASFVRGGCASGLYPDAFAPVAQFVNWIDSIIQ
Protocol: Namely, it is a spectrophotometric assay using the synthesized substrate, methoxysuccinyl-alanyl-alanyl- prolyl-valyl-p-nitroanilide(MeOSuc-Ala-Ala-Pro-Val-pNA, Cambridge research biochemical Co.) which has high specificity on neutrophil elastase.
20 μl of a test compound of various concentrations and 20 μl of enzyme solution (13 unit/ml) were added to 400 μl of 0.1M sodium phosphate buffer (pH 8.0). The mixture was incubated at 37° C. for 5 min, and then 20 μl of the substrate was added to the mixture in a final volume of 460 μl. The reaction was conducted by incubating thus obtained mixture at 37° C. for 20 min. The reaction was stopped by the addition of 300 μl of 20% acetic acid into the reaction mixture, and then p-nitroanilide released was measured by the spectrophotometrically at 405 nm.
Inhibition percents of the test compounds were calculated by the following equation:
Inhibition %=[1-(OD 405 nm value of the testing sample-background)/(OD 405 nm value of the control-background)]×100

| SMILES | IC50 |
| --- | --- |
| CC(C)(C)C(=O)Oc1ccc(-c2nnn(Cc3ccc(C(=O)N[C@@H](Cc4ccccc4)C(=O)O)cc3)n2)cc1 | 58 nM |
| CSCCC(NC(=O)c1ccc(Cn2nnc(-c3ccc(OC(=O)C(C)(C)C)cc3)n2)cc1)C(=O)O (racemic) [Example 62, N-[4-[5-(4-Pivaloyloxyphenyl)tetrazol-2-ylmethyl]benzoyl]-DL-methionine] | 79 nM |
| CC(C)(C)C(=O)Oc1ccc(-c2nnn[nH]2)cc1 [Example 3, 4-(1H-Tetrazol-5-yl)phenyl pivalate] | 2000 nM |
| CN(C)c1cc(-c2nnn(Cc3ccc(C(=O)O)cc3)n2)ccc1OC(=O)C(C)(C)C [Example 8, 4-[5-(3-Dimethylamino-4-pivaloyloxyphenyl)tetrazol-2-ylmethyl]benzoic acid] | 230 nM |
| CC(C)(C)OC(=O)Cn1nnc(-c2ccc(OC(=O)C(C)(C)C)cc2)n1 [Example 10, 4-[2-(t-Butoxycarbonylmethyl)tetrazol-5-yl]phenyl pivalate] | 800 nM |
| CC(C)(C)C(=O)Oc1ccc(-c2nnn(Cc3ccc([N+](=O)[O-])cc3)n2)cc1 [Example 25, 4-[2-(4-Nitrobenzyl)tetrazol-5-yl]phenyl pivalate] | 280 nM |
| CC(C)(C)C(=O)Oc1ccc(-c2nnn(C(c3ccccc3)c3ccccc3)n2)cc1 [Example 28, 4-[2-(Diphenylmethyl)tetrazol-5-yl]phenyl pivalate] | 220 nM |
| CC(C)(C)OC(=O)COc1ccccc1Cn1nnc(-c2ccc(OC(=O)C(C)(C)C)cc2)n1 [Example 30, t-Butyl 2-[5-(4-pivaloyloxyphenyl)tetrazol-2-ylmethyl]phenoxyacetate] | 380 nM |
| CC(C)(C)OC(=O)COc1cccc(Cn2nnc(-c3ccc(OC(=O)C(C)(C)C)cc3)n2)c1 [Example 31, t-Butyl 3-[5-(4-pivaloyloxyphenyl)tetrazol-2-ylmethyl]phenoxyacetate] | 100 nM |
| CC(C)(C)OC(=O)COc1ccc(Cn2nnc(-c3ccc(OC(=O)C(C)(C)C)cc3)n2)cc1 [Example 32, t-Butyl 4-[5-(4-pivaloyloxyphenyl)tetrazol-2-ylmethyl]phenoxyacetate] | 380 nM |
| CC(C)(C)C(=O)Oc1ccc(-c2nnn(C(C)(C)C)n2)cc1 [Example 36, 4-[2-(1,1-Dimethylethyl)tetrazol-5-yl]phenyl pivalate] | 800 nM |
| CN(C(=O)OC(C)(C)C)c1ccc(Cn2nnc(-c3ccc(OC(=O)C(C)(C)C)cc3)n2)cc1 [Example 39, 4-[2-[4-(N-t-Butoxycarbonyl-N-methylamino)benzyl]tetrazol-5-yl]phenyl pivalate] | 80 nM |
| CN(C(=O)OC(C)(C)C)c1ccc(Cn2nnnc2-c2ccc(OC(=O)C(C)(C)C)cc2)cc1 [Example 40, 4-[1-[4-(N-t-Butoxycarbonyl-N-methylamino)benzyl]tetrazol-5-yl]phenyl pivalate] | 250 nM |
| CC(C)(C)OC(=O)NCCn1nnc(-c2ccc(OC(=O)C(C)(C)C)cc2)n1 [Example 45, 4-[2-[2-(t-Butoxycarbonylamino)ethyl]tetrazol-5-yl]phenyl pivalate] | 130 nM |
| CC(C)(C)C(=O)Oc1ccc(-c2nnn(Cc3ccc(N4CCCC4)cc3)n2)cc1 [Example 50, 4-[2-(4-Pyrrolidinobenzyl)tetrazol-5-yl]phenyl pivalate] | 1700 nM |
| COc1cc(-c2nnn(Cc3ccc(C(=O)O)cc3)n2)ccc1OC(=O)C(C)(C)C [Example 56, 4-[5-(3-Methoxy-4-pivaloyloxyphenyl)tetrazol-2-ylmethyl]benzoic acid] | 420 nM |
| C[C@H](NC(=O)c1ccc(Cn2nnc(-c3ccc(OC(=O)C(C)(C)C)cc3)n2)cc1)C(=O)O [Example 57, N-[4-[5-(4-Pivaloyloxyphenyl)tetrazol-2-ylmethyl]benzoyl]-L-alanine] | 420 nM |
| CC(C)(C)C(=O)Oc1ccc(-c2nnn(Cc3ccc(C(=O)N[C@@H](CCC(=O)O)C(=O)O)cc3)n2)cc1 [Example 61, N-[4-[5-(4-Pivaloyloxyphenyl)tetrazol-2-ylmethyl]benzoyl]-L-glutamic acid] | 30 nM |
| CC(C)(C)C(=O)Oc1ccc(-c2nnn(Cc3ccc(C(=O)NCCCCCC(=O)O)cc3)n2)cc1 [Example 68, 6-[N-[4-[5-(4-Pivaloyloxyphenyl)tetrazol-2-ylmethyl]benzoyl]amino]caproic acid] | 200 nM |
| CC(C)(C)C(=O)Oc1ccc(-c2nnn(C(C(=O)NCC(=O)O)c3ccccc3)n2)cc1 (stereo not drawn) [Example 70, N-[2-Phenyl-2-[5-(4-pivaloyloxyphenyl)tetrazol-2-yl]acetyl]glycine] | 1000 nM |
| CC(C)(C)C(=O)Oc1ccc(-c2nnn(Cc3ccc(N)cc3)n2)cc1 [Example 76, 4-[2-(4-Aminobenzyl)tetrazol-5-yl]phenyl pivalate] | 180 nM |
| CC(C)(C)C(=O)Oc1ccc(-c2nnn(Cc3ccccc3NS(C)(=O)=O)n2)cc1 [Example 79, 4-[2-[2-(Methylsulfonylamino)benzyl]tetrazol-5-yl]phenyl pivalate] | 140 nM |
| CC(C)(C)C(=O)Oc1ccc(-c2nnn(Cc3ccccc3OCC(=O)O)n2)cc1 [Example 81, 2-[5-(4-Pivaloyloxyphenyl)tetrazol-2-ylmethyl]phenoxyacetic acid] | 59 nM |
| CC(C)(C)C(=O)Oc1ccc(-c2nnn(Cc3ccccc3OCCN)n2)cc1 [Example 84, 4-[2-[2-(2-Aminoethoxy)benzyl]tetrazol-5-yl]phenyl pivalate Hydrochloride] | 720 nM |
| CC(C)(C)C(=O)Oc1ccc(-c2nnn(Cc3cccc(OCCN)c3)n2)cc1 [Example 85, 4-[2-[3-(2-Aminoethoxy)benzyl]tetrazol-5-yl]phenyl pivalate Hydrochloride] | 77 nM |
| CC(C)(C)C(=O)Oc1ccc(-c2nnn(Cc3ccc(OCCN)cc3)n2)cc1 [Example 86, 4-[2-[4-(2-Aminoethoxy)benzyl]tetrazol-5-yl]phenyl pivalate Hydrochloride] | 80 nM |
| CC(C)(C)C(=O)Oc1ccc(-c2nnn(Cc3ccc(NC(=O)CN)cc3)n2)cc1 [Example 87, 4-[2-[4-(Glycylamino)benzyl]tetrazol-5-yl]phenyl pivalate Hydrochloride] | 58 nM |
| CC(C)(C)C(=O)Oc1ccc(-c2nnn(Cc3cccc(CCCN)c3)n2)cc1 [Example 89, 4-[2-[3-(3-Aminopropyl)benzyl]tetrazol-5-yl]phenyl pivalate Hydrochloride] | 170 nM |
| CNc1ccc(Cn2nnnc2-c2ccc(OC(=O)C(C)(C)C)cc2)cc1 [Example 91, 4-[1-(4-Methylaminobenzyl)tetrazol-5-yl]phenyl pivalate] | 580 nM |

More lines, now with the values ahead:

| IC50 | SMILES |
| --- | --- |
| 270 nM | CC(C)(C)C(=O)Oc1ccc(-c2nnn(Cc3cccc([N+](=O)[O-])c3)n2)cc1 [Example 26, 4-[2-(3-Nitrobenzyl)tetrazol-5-yl]phenyl pivalate] |
| 90 nM | CC(C)(C)C(=O)Oc1ccc(-c2nnn(Cc3ccccc3[N+](=O)[O-])n2)cc1 [Example 27, 4-[2-(2-Nitrobenzyl)tetrazol-5-yl]phenyl pivalate] |
| 100 nM | CC(=O)c1ccc(Cn2nnc(-c3ccc(OC(=O)C(C)(C)C)cc3)n2)cc1 [Example 29, 4-[2-(4-Acetylbenzyl)tetrazol-5-yl]phenyl pivalate] |
| 800 nM | CN(C)CCn1nnc(-c2ccc(OC(=O)C(C)(C)C)cc2)n1 [Example 38, 4-[2-(2-Dimethylaminoethyl)tetrazol-5-yl]phenyl pivalate Hydrochloride] |
| 130 nM | COc1ccc(COCCCCCn2nnc(-c3ccc(OC(=O)C(C)(C)C)cc3)n2)cc1 [Example 43, 4-[2-[5-(4-Methoxybenzyloxy)pentyl]tetrazol-5-yl]phenyl pivalate] |
| 350 nM | CC(C)(C)C(=O)Oc1ccc(-c2nnn(Cc3ccccc3C(=O)O)n2)cc1 [Example 52, 2-[5-(4-Pivaloyloxyphenyl)tetrazol-2-ylmethyl]benzoic acid] |
| 110 nM | CC(C)(C)C(=O)Oc1ccc(-c2nnn(Cc3ccc(CC(=O)O)cc3)n2)cc1 [Example 53, 4-[5-(4-Pivaloyloxyphenyl)tetrazol-2-ylmethyl]phenylacetic acid] |
| 1000 nM | Cc1cc(-c2nnn(Cc3ccc(C(=O)O)cc3)n2)ccc1OC(=O)C(C)(C)C [Example 55, 4-[5-(3-Methyl-4-pivaloyloxyphenyl)tetrazol-2-ylmethyl]benzoic acid] |
| 29 nM | CC(C)(C)C(=O)Oc1ccc(-c2nnn(Cc3ccc(C(=O)NCC(=O)O)cc3)n2)cc1 [Example 58, N-[4-[5-(4-pivaloyloxyphenyl)tetrazol-2-ylmethyl]benzoyl]glycine] |
| 260 nM | CC(C)(C)C(=O)Oc1ccc(-c2nnn(Cc3ccc(C(=O)NCCN)cc3)n2)cc1 [Example 71, N-(2-Aminoethyl)-4-[5-(4-pivaloyloxyphenyl)tetrazol-2-ylmethyl]benzamide Hydrochloride] |
| 500 nM | CC(C)(C)C(=O)Oc1ccc(-c2nnn(CCO)n2)cc1 [Example 72, 4-[2-(2-Hydroxyethyl)tetrazol-5-yl]phenyl pivalate] |
| 150 nM | CC(C)(C)C(=O)Oc1ccc(-c2nnn(Cc3cccc(N)c3)n2)cc1 [Example 77, 4-[2-(3-Aminobenzyl)tetrazol-5-yl]phenyl pivalate] |
| 92 nM | CC(C)(C)C(=O)Oc1ccc(-c2nnn(Cc3cccc(OCC(=O)O)c3)n2)cc1 [Example 82, 3-[5-(4-Pivaloyloxyphenyl)tetrazol-2-ylmethyl]phenoxyacetic acid] |
| 84 nM | CC(C)(C)C(=O)Oc1ccc(-c2nnn(Cc3ccc(OCC(=O)O)cc3)n2)cc1 [Example 83, 4-[5-(4-Pivaloyloxyphenyl)tetrazol-2-ylmethyl]phenoxyacetic acid] |
| 650 nM | COc1cc(-c2nnn(Cc3cccc(OCCN)c3)n2)ccc1OC(=O)C(C)(C)C [Example 88, 4-[2-[3-(2-Aminoethoxy)benzyl]tetrazol-5-yl]-2-methoxyphenyl pivalate Hydrochloride] |
| 110 nM | CNc1ccc(Cn2nnc(-c3ccc(OC(=O)C(C)(C)C)cc3)n2)cc1 [Example 90, 4-[2-(4-Methylaminobenzyl)tetrazol-5-yl]phenyl pivalate] |
